According to patent US20130158264A1, “Polymorphs of OSI-906” (priority 2010, published 2013):
“Also recorded” adds a separate entry of the source.

How the values were obtained:
Type in all cases: physicochemical
[1] = Gravimetric moisture sorption; conditions: for water adsorbed: 25° C.; for XRPD form of the dried solid following moisture sorption analysis: dried at 60° C./0% RH after the experiment; for stability upon desorption (loss of water): humidity reduced below 15%
Experimental: Gravimetric Moisture Sorption: Gravimetric moisture sorption experiments were carried out on selected materials by first drying the sample at 40% RH and 25° C. until an equilibrium weight was reached or for a maximum of four hours. The sample was then subjected to an isothermal (25° C.) adsorption scan from 40 to 90% RH in steps of 10%. The sample was allowed to equilibrate to an asymptotic weight at each point for a maximum of four hours. Following adsorption, a desorption scan from 85 to 0% RH (at 25° C.) was run in steps of −10% again allowing a maximum of four hours for equilibration to an asymptotic weight. An adsorption scan was then performed from 0% RH to 40% RH in steps of +10% RH. The sample was then dried for 1-2 hours at 60° C. and the resulting solid analyzed by XRPD.

[2] = DSC isothermal hold at 105° C. followed by XRPD; conditions: held at 105° C. for five minutes
Experimental: Differential Scanning Calorimetry Analysis:
Differential scanning calorimetry (DSC) analyses were carried out on the samples “as is”. Samples were weighed in an aluminum pan, covered with a pierced lid, and then crimped. Analysis conditions were 30-105, 30-300, 30-350° C. at 10° C./min. In addition, isothermal holds were performed for a duration of five minutes at 105° C. and 200° C.
(See FIG. 49). In an effort to elucidate the additional thermal events, additional DSC experiments were conducted. Form C was held at 105° C. for five minutes, cooled to room temperature and then reheated to the same temperature. […] The isothermal hold experiment was repeated and the sample then exposed to the lab environment (˜40-50% RH) overnight. […] These observations are consistent with the results previously presented following storage of Form C under desiccant conditions.

[3] = Additional experiments to isolate OSI-906 solid forms (desiccant storage, exposure to lab humidity)
Experimental: Form C was confirmed to be a monohydrate of OSI-906 by gravimetric moisture sorption analysis. The solid form adsorbed approximately 4.2 wt % water at 30% RH which is consistent with the theoretical water content (4.1 wt %) of a monohydrate of OSI-906 (See FIG. 47). Upon desorption, hysteresis was observed between 25% RH and 5% RH. […] Based on these findings, an additional experiment was conducted in an effort to isolate this new crystalline form. An XRPD substrate containing Form C was placed in a desiccator at room temperature. After overnight storage, the slide was analyzed immediately by XRPD upon removal from the environment and brief exposure (<10 min) to the lab humidity (40-50% RH).

[4] = Slurry experiments (form conversion by XRPD)
Experimental: Slurry Experiments: Approximately 20-50 mg of select crystalline forms were weighed to individual 8 mL vials equipped with a magnetic stir bar. Either THF, water, EtOH, (80:20) EtOH:Water or IPA was added to obtain a free flowing slurry. After 3, 5, 7 and 11 days of equilibration at 50° C. or ambient temperature, solid from each slurry was recovered by centrifuge filtration through 0.45 μm nylon filters. The isolated solids were analyzed by XRPD to check for form conversion. […] (Table 22).

[5] = Thermal stress experiments (Forms B, D, E, and F) in vacuum oven
Experimental: Thermal Stress Experiments (Forms B, D, E, and F)
Solids were stressed under different temperature (40° C. or 80° C.) in a vacuum oven for a measured time period.

[6] = Solid-state stability under storage conditions (XRPD)
Experimental: Solid-State Stability: Approximately 50 mg of Form A or Forms C+D were weighed to individual 8 mL vials and placed uncapped in the following storage conditions: 40° C. under vacuum, 80° C. under vacuum, desiccant, 25° C./60% RH and 40° C./75% RH. […] (Table 21). To assess the stability of Form A, the solid form was stored at different environmental conditions as described herein. Approximately 50 mg of Form A was weighed to 8 mL vials and placed uncapped in the following storage conditions: 40° C. under vacuum, 80° C. under vacuum, desiccant, 25° C./60% RH and 40° C./75% RH. After 24 hours and seven days of equilibration the solids were analyzed by XRPD. (See Table 21).

[7] = (80:20) EtOH:Water, prolonged equilibration at ambient and elevated temperature
[8] = water, prolonged equilibration at ambient and elevated temperature

Compound	water adsorbed ([1]; 60% RH)	XRPD form of the dried solid following moisture sorption analysis [1]	stability upon desorption (loss of water) [1]	form stability in slurry [4, 7]	form stability in slurry ([4]; EtOH, ambient temperature)	form stability in slurry ([4]; EtOH, elevated temperature)	form stability in slurry ([4]; IPA)	form stability in slurry ([4]; THF)	form stability in slurry [4, 8]	XRPD Result after thermal stress ([5]; 40° C., 3 d)	also measured
CC1(O)CC(c2nc(-c3ccc4ccc(-c5ccccc5)nc4c3)c3c(N)nccn23)C1 (stereo not drawn) [Form A, cis-3-[8-amino-1-(2-phenyl-quinolin-7-yl)-imidazo[1,5-a]pyrazin-3-yl]-1-methylcyclobutanol]	0.2 wt %	consistent with the initial form									hygroscopicity by gravimetric moisture sorption analysis [1]: non-hygroscopic; water adsorbed ([1]; 90% RH): 0.3 wt %
CC1(O)CC(c2nc(-c3ccc4ccc(-c5ccccc5)nc4c3)c3c(N)nccn23)C1 (stereo not drawn) [Form C, cis-3-[8-amino-1-(2-phenyl-quinolin-7-yl)-imidazo[1,5-a]pyrazin-3-yl]-1-methylcyclobutanol]		mixture of Form C and an unidentified crystalline form; also recorded: mixture of Forms C+I	not stable	stable	exhibiting stability	conversion to Forms A or E	conversion to Form A	conversion to Form A	stable		XRPD form after DSC isothermal hold [2]: indicative of Form C; XRPD form after desiccant storage ([3]; overnight in a desiccator at room temperature): Form I; water adsorbed ([1]; 30% RH): approximately 4.2 wt %; XRPD form after slurry ([4]; THF, room temperature, 11 day): Form A
CC1(O)CC(c2nc(-c3ccc4ccc(-c5ccccc5)nc4c3)c3c(N)nccn23)C1 (stereo not drawn) [Form D, cis-3-[8-amino-1-(2-phenyl-quinolin-7-yl)-imidazo[1,5-a]pyrazin-3-yl]-1-methylcyclobutanol]	approximately 3.9 wt %	mixture of Forms C and D	not stable	conversion to Form C	Form C	converting to either Form A or E	conversion to Form A	conversion to Form A	stable	Form C	solid-state stability (summary in words) ([6]; one and seven days at 25° C./60% RH, 40° C./75% RH and under desiccant conditions): exhibited stability; solid-state stability (summary in words) ([6]; one and seven days at elevated temperature drying conditions (40° C. or 80° C. under vacuum)): conversion to Form C
CC1(O)CC(c2nc(-c3ccc4ccc(-c5ccccc5)nc4c3)c3c(N)nccn23)C1 (stereo not drawn) [Form F, cis-3-[8-amino-1-(2-phenyl-quinolin-7-yl)-imidazo[1,5-a]pyrazin-3-yl]-1-methylcyclobutanol]										Form C	XRPD Result after thermal stress ([5]; 80° C., overnight): Form C
CC1(O)CC(c2nc(-c3ccc4ccc(-c5ccccc5)nc4c3)c3c(N)nccn23)C1 (stereo not drawn) [Form I, cis-3-[8-amino-1-(2-phenyl-quinolin-7-yl)-imidazo[1,5-a]pyrazin-3-yl]-1-methylcyclobutanol]											XRPD form after exposure to lab humidity ([3]; 1 hour, lab humidity 40-50% RH): conversion to Form C
